Experiments:
Assay in all cases: MIC, broth microdilution (CLSI), substance alone or ATB combined with compound at 4 or 8 μg/mL
PAE UFR90 = assay type: cell-based, P. aeruginosa; details: PAE UFR90; for MIC ATB combined with compound: compound @8 μg/ml
Procedure, shortened: (§1)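 Each strain received 5·10^5 CFU/mL of log-phase cells in ca-MHB over DMSO-spotted compound or compound-antibiotic combinations. After 16-20 h at 35° C, growth was scored visually.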

PAE UFR48 = assay type: cell-based, P. aeruginosa; details: PAE UFR48; for MIC ATB combined with compound: compound @8 μg/ml
Procedure, shortened: as §1

PAE 105250 = assay type: cell-based, P. aeruginosa; details: PAE 105250; for MIC ATB combined with compound: compound @8 μg/ml
Procedure, shortened: as §1

SPN 49619 = assay type: cell-based, S. pneumoniae; details: SPN 49619; for MIC ATB combined with compound: compound @8 μg/ml
Procedure, shortened: as §1

ABA UFR160 = assay type: cell-based, A. baumannii; details: substance alone
Procedure, shortened: as §1

ABA 19606 = assay type: cell-based, A. baumannii; details: substance alone
Procedure, shortened: as §1

ECL P99 = assay type: cell-based, E. cloacae; details: ECL P99; for MIC ATB combined with compound: compound @8 μg/ml
Procedure, shortened: as §1

SAU 29213 = assay type: cell-based, S. aureus; details: for MIC ATB combined with compound: compound @8 μg/ml, SAU 29213
Procedure, shortened: as §1

KPN UFR42 = assay type: cell-based, K. pneumoniae; details: KPN UFR42; for MIC ATB combined with compound: compound @8 μg/ml
Procedure, shortened: as §1

KPN 6299 = assay type: cell-based, K. pneumoniae; details: compound @8 μg/ml
Procedure, shortened: as §1

KPN BAA-1898 = assay type: cell-based, K. pneumoniae; details: KPN BAA-1898; for MIC ATB combined with compound: compound @8 μg/ml
Procedure, shortened: as §1

ECO 190317 = assay type: cell-based, E. coli; details: ECO 190317; for MIC ATB combined with compound: compound @8 μg/ml
Procedure, shortened: as §1

ECO UFR39 = assay type: cell-based, E. coli; details: ECO UFR39; for MIC ATB combined with compound: compound @8 μg/ml
Procedure, shortened: as §1

O=C(O)C(F)(F)F.O=C1N2C[C@H](c3scnc3[C@H]2c2ncc[nH]2)N1OS(=O)(=O)[O-].[Na+] (relative stereo) [Example 6, sodium and 2,2,2-trifluoroacetate [trans-7-(1H-imidazol-3-ium--2-yl)-9-oxo-3-thia-5,8,10-triaza-tricyclo[6.2.1.0^2,6]undeca-2(6),4-dien-10-yl]sulfate]
4 µg/mL: MIC ATB combined with compound (PAE UFR90; ATB FEP) | MIC ATB combined with compound (PAE UFR48; ATB MEM) | MIC ATB combined with compound (PAE 105250; ATB ATM) | MIC (ECL P99; substance alone) | MIC (KPN UFR42; substance alone) | MIC (KPN BAA-1898; substance alone)
32 µg/mL: MIC ATB combined with compound (PAE UFR48; ATB FEP) | MIC ATB combined with compound (PAE UFR48; ATB FOS)
16 µg/mL: MIC (SPN 49619; substance alone) | MIC (ABA UFR160) | MIC (ABA 19606)
1 µg/mL: MIC ATB combined with compound (PAE UFR90; ATB MEM) | MIC (ECO 190317; substance alone)
<0.031 µg/mL: MIC ATB combined with compound (SPN 49619; ATB ATM) | MIC ATB combined with compound (SPN 49619; ATB FEP) | MIC ATB combined with compound (SPN 49619; ATB MEM) | MIC ATB combined with compound (SPN 49619; ATB PIP) | MIC ATB combined with compound (ECL P99; ATB ATM) | MIC ATB combined with compound (ECL P99; ATB FEP) | MIC ATB combined with compound (ECL P99; ATB MEM) | MIC ATB combined with compound (ECL P99; ATB PIP) | MIC ATB combined with compound (KPN UFR42; ATB ATM) | MIC ATB combined with compound (KPN UFR42; ATB FEP) | MIC ATB combined with compound (KPN UFR42; ATB MEM) | MIC ATB combined with compound (KPN 6299; ATB ATM) | MIC ATB combined with compound (KPN 6299; ATB FEP) | MIC ATB combined with compound (KPN 6299; ATB MEM) | MIC ATB combined with compound (KPN 6299; ATB PIP) | MIC ATB combined with compound (KPN BAA-1898; ATB ATM) | MIC ATB combined with compound (KPN BAA-1898; ATB FEP) | MIC ATB combined with compound (KPN BAA-1898; ATB MEM) | MIC ATB combined with compound (KPN BAA-1898; ATB PIP) | MIC ATB combined with compound (ECO 190317; ATB ATM) | MIC ATB combined with compound (ECO 190317; ATB FEP) | MIC ATB combined with compound (ECO 190317; ATB MEM) | MIC ATB combined with compound (ECO 190317; ATB PIP) | MIC ATB combined with compound (ECO UFR39; ATB ATM) | MIC ATB combined with compound (ECO UFR39; ATB FEP) | MIC ATB combined with compound (ECO UFR39; ATB MEM) | MIC ATB combined with compound (ECO UFR39; ATB PIP)
2 µg/mL: MIC ATB combined with compound (PAE 105250; ATB MEM) | MIC (ECO UFR39; substance alone)
0.063 µg/mL: MIC ATB combined with compound (SAU 29213; ATB PIP)
<0.125 µg/mL: MIC ATB combined with compound (SPN 49619; ATB FOS) | MIC ATB combined with compound (ECL P99; ATB FOS) | MIC ATB combined with compound (KPN UFR42; ATB FOS) | MIC ATB combined with compound (ECO 190317; ATB FOS) | MIC ATB combined with compound (ECO UFR39; ATB FOS)
128 µg/mL: MIC ATB combined with compound (PAE 105250; ATB FOS)
>32 µg/mL: MIC ATB combined with compound (PAE UFR90; ATB PIP) | MIC (PAE UFR90; substance alone) | MIC ATB combined with compound (PAE UFR48; ATB PIP) | MIC (PAE UFR48; substance alone) | MIC ATB combined with compound (PAE 105250; ATB PIP) | MIC (PAE 105250; substance alone) | MIC ATB combined with compound (SAU 29213; ATB ATM) | MIC (SAU 29213; substance alone, SAU 29213 (MSSA 29213))
0.25 µg/mL: MIC ATB combined with compound (KPN 6299; ATB FOS)
<=0.125 μg/mL: MIC ATB combined with compound (SAU 29213; ATB FOS) | MIC ATB combined with compound (KPN BAA-1898; ATB FOS)
<=0.031 μg/mL: MIC ATB combined with compound (SAU 29213; ATB FEP) | MIC ATB combined with compound (SAU 29213; ATB MEM) | MIC ATB combined with compound (KPN UFR42; ATB PIP)
8 µg/mL: MIC ATB combined with compound (PAE UFR90; ATB ATM) | MIC ATB combined with compound (PAE UFR90; ATB FOS) | MIC ATB combined with compound (PAE UFR48; ATB ATM) | MIC ATB combined with compound (PAE 105250; ATB FEP)

From patent US20200024278A1, “COMPOSITION COMPRISING ANTIBIOTIC COMPOUND AND AN HETEROCYCLIC COMPOUND AND THEIR USE IN PREVENTING OR TREATING BACTERIAL INFECTIONS” (MUTABILIS, priority 2016, published 2020)
